# In a melting point compilation (Tetko et al.; mined from patent text by program, amines drawn as free bases though some values may be those of a salt):
row,SMILES,melting point [°C]
1,CCC(Br)C(=O)NOCc1ccccc1 (stereo not drawn),99.3 to 102
2,COc1ccc2c(c1)[C@@H]1c3ccccc3N[C@@H]1C2 (relative stereo),129 to 130
3,Cc1noc(-c2ccc(C(F)(F)F)cc2)c1C(=O)Nc1ccccc1C(=O)O,205 to 206
4,C[Si](C)(C)C#C[C@@]1(O)[C@@H](COC(=O)c2ccc(Cl)cc2)OC(O)[C@@H]1O (stereo partly drawn),130 to 132
5,CC(=O)OCCCCn1cnc2c(Cl)nc(Nc3ccccc3)nc21,195 to 197
6,Cc1nn(-c2c(Cl)cc(C(F)(F)F)cc2Cl)nc1CC#N,103 to 104
7,N[C@@H](CO)C(=O)NC(=O)N(CCCl)N=O,117 to 120
8,CCC(Br)C(=O)Nc1c(C)cccc1C (stereo not drawn),180 to 190
9,CC(=Cc1cccc(O)c1)[N+](=O)[O-],96 to 98
10,CC(C)(OCc1nn(Cc2ccccc2)c2ccc([N+](=O)[O-])cc12)C(=O)O,129 to 131
11,CN1CCC(=C2c3ccc(Cl)cc3CC(=O)c3sccc32)CC1,150 to 151
12,CN(C)CCCCC(=O)c1ccc2c(c1)Cc1cc(C(=O)CCCCN(C)C)ccc1-2,124 to 126
13,O=C(CO)NCc1ccc2ccn(C3CCN(CCc4ccccc4F)CC3)c2c1,151 to 152
14,O=C(Cl)COc1ccc(Cl)cc1Cl,44 to 45
15,c1ccc(Cn2cccc2-c2nc(Nc3ccc(-c4ccccc4)cc3)nc(Nc3ccc(-c4ccccc4)cc3)n2)cc1,185 to 186
16,O=C(O)C1CCC(c2ccccc2)n2c(=O)n(CCS)c(=O)n21 (stereo not drawn),172 to 175
17,CC(C)(C)OC(=O)NCCNC(=O)C1CCN(C(=O)OC(C)(C)C)CC1,172 to 174
18,Cn1cccc1C=CC1=CC(=O)C(C)(C)O1,98.5 to 100
19,Cn1cc2c(C#CCO)cccc2n1,139 to 140

row,SMILES,melting point [°C]
1,CCCOc1cc(-c2c(C(=O)OCC)c(Cn3cncn3)nc3cc(OC)c(OC)cc23)ccc1OC,127 to 128
2,NCCc1cccc(N2C(=O)N(c3ccc(Cl)cc3Cl)Cc3cnc(Nc4ccccc4)nc32)c1,131 to 135
3,O=C(O)C1=Cc2cc(C(F)(F)F)ccc2OC1C(F)(F)F (stereo not drawn),144 to 145
4,c1ccc(CN2CCN(c3onc4c3CCc3ccccc3-4)CC2)cc1,148 to 149
5,O=C(O)CCCOc1ccc(CNC(=O)C2Cc3ccccc3N2S(=O)(=O)c2ccc(-c3cccc(C(F)(F)F)c3)cc2)cc1 (stereo not drawn),78 to 80
6,Cc1nc2cccc(OCC(C)(C)NC(=O)CC(C)C)c2c(N)c1C(=O)O,195 to 198
7,Fc1ccccc1-c1noc2c(Cl)c(OCCBr)ccc12,131 to 132
8,COC(=O)C1=C(C)NC(CO)=C(C(=O)OC)C1c1cccc2c(=O)c(C)c(-c3ccccc3)oc12 (stereo not drawn),231 to 233
9,CC(=O)OCc1cccc(NC(=O)c2nnn(Cc3ccc(Cl)c(Cl)c3)c2C)c1,> 70
10,CC(C)c1cc2c(c3c1C(=O)NS3(=O)=O)OCO2,226 to 228
11,CN1C(=O)C(CCCN2CCN(c3ccc(F)cc3)CC2)Sc2ccccc21 (stereo not drawn),103 to 104
12,O=C1CCN(CC(c2ccccc2)c2ccccc2)CC1C1(O)CCN(CC(c2ccccc2)c2ccccc2)CC1 (stereo not drawn),125 to 127
13,C=CCNc1cc2c(c3ccccc13)C(CCl)CN2C(=O)c1cc2cc(OC)c(OC)c(OC)c2[nH]1 (stereo not drawn),107 to 112
14,CS(=O)(=O)c1cccc(Nc2cc(-c3ccccc3OCc3ccccc3)ncn2)c1,199 to 205
15,O=C(C=Cc1ccccc1)SC(Cn1ccnc1)c1ccc(Cl)cc1Cl (stereo not drawn),139 to 141
16,O=C(Nc1cccc2c(=O)cc(C(=O)O)oc12)c1cc(Cl)c2c(c1)CC(CCCc1ccccc1)O2 (stereo not drawn),224 to 225
17,CN1CCN(c2ccc(S(=O)(=O)c3ccc(F)cc3)c(N)c2)CC1,85 to 89
18,COc1ccc(CCN(C)CCCC(C#N)(C(=O)OC(C)C)c2ccc(OC)c(OC)c2)cc1OC (stereo not drawn),66 to 67
19,O=c1ccc2c(-n3cnc(CO)c3)nccc2[nH]1,259 to 261
